According to the supplement of paper PMC10307832:

compound: CC1=NN=C(O1)C2=NN=C(C=C2)N3CCC(CC3)OC4=C(C=CC(=C4)F)Cl + CCNC(=O)c1noc(-c2cc(C(C)C)c(O)cc2O)c1-c1ccc(CN2CCOCC2)cc1 [Luminespib] (partner 0.01 µM); assay: relative viability (nuclei count vs DMSO), 5 days (fraction); higher = more cells survive; conditions: first compound 0.253 µM
Procedure, shortened: (§1)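 Values are medians from duplicate plates. Each reflects relative viability, defined as the nuclei count of treated wells over that of vehicle wells. Lung cancer cell lines in 1536-well plates were pin-tool dosed one day after seeding with one drug alone or with a fixed anchor-drug dose plus five library-drug doses (not always all listed) in √10 steps, then fixed, stained and imaged at 4× after 5 days.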

Cell Line	relative viability
NCI-H2126	0.826
A-427	0.882
NCI-H650	0.77
RERF-LC-KJ	0.75
NCI-H1915	0.615
NCI-H661	0.785
NCI-H441	0.295
NCI-H1395	0.431
201T	0.486
NCI-H2023	0.376
HCC-827	0.428
NCI-H322M	0.815
NCI-H1437	0.654
PC-14	0.163
CAL-12T	0.362
NCI-H1734	0.237
EPLC-272H	0.226

Cell Line	relative viability
NCI-H3122	0.0576
NCI-H2009	0.596
NCI-H520	0.207
NCI-H1651	0.738
NCI-H1993	0.636
NCI-H2228	0.164
HCC-15	0.342
NCI-H1793	0.132
EKVX	0.447
LC-2-ad	0.567
NCI-H1666	0.537
NCI-H1944	0.45
NCI-H2085	0.499
NCI-H358	0.287
PC-3 [JPC-3]	0.674
LOU-NH91	0.317

same assay, conditions: first compound 0.8 µM

Cell Line	relative viability
NCI-H2126	0.795
NCI-H650	0.685
RERF-LC-KJ	0.647
NCI-H1915	0.393
NCI-H661	0.751
NCI-H441	0.32
NCI-H1395	0.725
201T	0.589
NCI-H2023	0.389
HCC-827	0.228
NCI-H322M	0.796
NCI-H1437	0.6
CAL-12T	0.342
NCI-H1734	0.206
EPLC-272H	0.167
NCI-H3122	0.108
NCI-H2009	0.565
NCI-H520	0.217
NCI-H1651	0.749
NCI-H1993	0.829
NCI-H2228	0.15
HCC-15	0.303
NCI-H1793	0.348
EKVX	0.362
LC-2-ad	0.488
NCI-H1666	0.504
NCI-H1944	0.417
NCI-H358	0.176
PC-3 [JPC-3]	0.686
LOU-NH91	0.318

same assay, conditions: first compound 2.53 µM

Cell Line	relative viability
NCI-H2126	0.734
A-427	0.708
NCI-H650	0.703
RERF-LC-KJ	0.612
NCI-H1915	0.503
NCI-H661	0.714
NCI-H441	0.245
NCI-H1975	0.224
NCI-H1395	0.678
201T	0.499
NCI-H2023	0.336
HCC-827	0.349
NCI-H322M	0.726
NCI-H1437	0.598
PC-14	0.22
CAL-12T	0.501
NCI-H1734	0.249

Cell Line	relative viability
EPLC-272H	0.313
NCI-H3122	0.0895
NCI-H2009	0.539
NCI-H520	0.199
NCI-H1651	0.685
NCI-H1993	0.74
NCI-H2228	0.132
HCC-15	0.294
NCI-H1793	0.166
EKVX	0.331
LC-2-ad	0.544
NCI-H1666	0.479
NCI-H1944	0.483
NCI-H2085	0.339
NCI-H358	0.177
PC-3 [JPC-3]	0.611
LOU-NH91	0.307

same assay, conditions: first compound 8 µM

Cell Line	relative viability
NCI-H2126	0.828
A-427	0.732
NCI-H650	0.793
RERF-LC-KJ	0.673
NCI-H1915	0.312
NCI-H661	0.549
NCI-H441	0.282
NCI-H1975	0.196
NCI-H1395	0.82
201T	0.566
NCI-H2023	0.253
HCC-827	0.339
NCI-H322M	0.648
NCI-H1437	0.546
PC-14	0.142
CAL-12T	0.415
NCI-H1734	0.189

Cell Line	relative viability
EPLC-272H	0.267
NCI-H3122	0.0702
NCI-H2009	0.523
NCI-H520	0.2
NCI-H1651	0.692
NCI-H1993	0.725
NCI-H2228	0.131
HCC-15	0.286
NCI-H1793	0.405
EKVX	0.32
LC-2-ad	0.483
NCI-H1666	0.444
NCI-H1944	0.402
NCI-H2085	0.216
NCI-H358	0.207
PC-3 [JPC-3]	0.603
LOU-NH91	0.315

compound: CC1=NN=C(O1)C2=NN=C(C=C2)N3CCC(CC3)OC4=C(C=CC(=C4)F)Cl + C[C@]1(O)C[C@@H](c2nc(-c3ccc4ccc(-c5ccccc5)nc4c3)c3c(N)nccn32)C1 [Linsitinib] (partner 1 µM); assay: as above; conditions: first compound 0.253 µM
Procedure, shortened: as §1

Cell Line	relative viability
NCI-H2126	0.67
A-427	0.947
NCI-H650	0.981
RERF-LC-KJ	0.523
NCI-H1915	0.582
NCI-H661	0.566
NCI-H441	0.571
NCI-H1395	0.931
201T	0.569
NCI-H2023	0.478
HCC-827	0.395
NCI-H322M	0.853
NCI-H1437	0.552
PC-14	0.783
CAL-12T	0.953
NCI-H1734	0.863

Cell Line	relative viability
EPLC-272H	1.09
NCI-H3122	0.729
NCI-H2009	0.684
NCI-H520	0.929
NCI-H1651	0.857
NCI-H1993	0.679
NCI-H2228	0.673
HCC-15	0.608
NCI-H1793	0.725
EKVX	0.409
LC-2-ad	0.427
NCI-H1666	0.589
NCI-H1944	0.626
NCI-H2085	0.743
NCI-H358	0.714
PC-3 [JPC-3]	0.789

same assay, conditions: first compound 0.8 µM

Cell Line	relative viability
NCI-H2126	0.64
NCI-H650	0.766
RERF-LC-KJ	0.568
NCI-H1915	0.51
NCI-H661	0.531
NCI-H441	0.419
NCI-H1975	0.941
NCI-H1395	0.943
201T	0.596
NCI-H2023	0.433
HCC-827	0.281
NCI-H322M	0.836
NCI-H1437	0.644
PC-14	0.732
CAL-12T	0.78
NCI-H1734	0.783

Cell Line	relative viability
NCI-H3122	0.551
NCI-H2009	0.636
NCI-H520	0.793
NCI-H1651	0.873
NCI-H1993	0.745
NCI-H2228	0.808
HCC-15	0.58
NCI-H1793	0.735
EKVX	0.341
LC-2-ad	0.376
NCI-H1666	0.725
NCI-H1944	0.769
NCI-H2085	0.793
NCI-H358	0.751
PC-3 [JPC-3]	0.869
LOU-NH91	0.86

same assay, conditions: first compound 2.53 µM

Cell Line	relative viability
NCI-H2126	0.753
A-427	0.907
NCI-H650	0.773
RERF-LC-KJ	0.6
NCI-H1915	0.45
NCI-H661	0.62
NCI-H441	0.473
NCI-H1975	0.815
NCI-H1395	1.09
201T	0.634
NCI-H2023	0.557
HCC-827	0.366
NCI-H322M	0.896
NCI-H1437	0.689
PC-14	0.777
CAL-12T	0.754
NCI-H1734	0.814

Cell Line	relative viability
EPLC-272H	1.18
NCI-H3122	0.749
NCI-H2009	0.623
NCI-H520	0.93
NCI-H1651	0.807
NCI-H1993	0.647
NCI-H2228	0.481
HCC-15	0.553
NCI-H1793	0.952
EKVX	0.364
LC-2-ad	0.381
NCI-H1666	0.791
NCI-H1944	0.728
NCI-H2085	0.792
NCI-H358	0.758
PC-3 [JPC-3]	0.869
LOU-NH91	0.862

same assay, conditions: first compound 8 µM

Cell Line	relative viability
NCI-H2126	0.505
A-427	0.887
NCI-H650	0.786
RERF-LC-KJ	0.632
NCI-H1915	0.376
NCI-H661	0.469
NCI-H441	0.396
NCI-H1975	0.868
NCI-H1395	1.06
201T	0.565
NCI-H2023	0.393
HCC-827	0.355
NCI-H322M	0.786
NCI-H1437	0.487
PC-14	0.739
CAL-12T	0.869
NCI-H1734	0.601

Cell Line	relative viability
EPLC-272H	1.05
NCI-H3122	0.517
NCI-H2009	0.589
NCI-H520	0.755
NCI-H1651	0.801
NCI-H1993	0.693
NCI-H2228	0.547
HCC-15	0.578
NCI-H1793	0.822
EKVX	0.423
LC-2-ad	0.328
NCI-H1666	0.656
NCI-H1944	0.717
NCI-H2085	0.65
NCI-H358	0.795
PC-3 [JPC-3]	0.844
LOU-NH91	0.997

compound: CC(C)C[C@@H](C(=O)N[C@H](C(=O)OC1CCCC1)c1ccccc1)[C@H](O)C(=O)NO [Tosedostat] + Cc1nc(NC(=O)N2CCC[C@H]2C(N)=O)sc1-c1ccnc(C(C)(C)C(F)(F)F)c1 [Alpelisib] (partner 2 µM); assay: as above; conditions: first compound 0.02 µM
Procedure, shortened: as §1

Cell Line	relative viability
NCI-H2126	0.664
A-427	1.1
NCI-H650	1
RERF-LC-KJ	0.677
NCI-H1915	1.1
NCI-H661	0.736
NCI-H441	0.749
NCI-H1975	0.658
NCI-H1395	1.03
201T	0.967
NCI-H2023	0.571
HCC-827	0.826
NCI-H322M	0.726
NCI-H1437	0.984
PC-14	0.806
CAL-12T	1.28
NCI-H1734	0.672
EPLC-272H	0.777
NCI-H3122	0.861
NCI-H2009	1.24
NCI-H520	0.805
